Data from publication PMC9606943, “Synthesis and Chemopreventive Potential of 5-FU/Genistein Hybrids on Colorectal Cancer Cells” (Pharmaceuticals, 2022).
Where two headings read alike, the source gives them in different places.

Key:
SW480 [1] = assay: Sulforhodamine B cytotoxicity assay, SW480; format: cell-based, human; details: 48 h; for IC50: mean ± SE
Procedure: (§1) Two colon cancer cells (SW480 and SW620) and non-malignant cell lines (human keratinocytes, HaCaT; chinese hamster ovary, CHO-K1) were obtained from The European Collection of Authenticated Cell Cultures (ECACC, England). For biological evaluations, cells were cultured in Dulbecco’s Modified Eagle Medium, supplemented with 10% heat-inactivated (56 °C) horse serum, 1% penicillin/streptomycin and 1% non-essential amino acids (Gibco Invitrogen, Carlsbad, CA, USA). During the treatments, the serum was reduced to 3%, and the medium was supplemented with insulin ([…]) transferrin ([…]) and selenium (5 ng/mL) (ITS-defined medium; Gibco, Invitrogen, Carlsbad, USA). To avoid Mycoplasma spp. contamination, cell cultures were regularly tested by polymerase chain reaction.
(§2) Briefly, cells were seeded at 20,000 cells/well (for cytotoxicity assay) and 2500 cells/well (for the antiproliferative test) in 96-well tissue culture plates, incubating at 37 °C in a humidified atmosphere with 5% CO2. After the adaptation time (24 h), cells were treated with increasing concentrations of the hybrid molecules or DMSO (1%). At the end of each treatment, cells were fixed with trichloroacetic acid (50% v/v; MERCK) for one hour at 4 °C. Subsequently, cell proteins were stained with SRB (0.4% w/v; Sigma-Aldrich, United States) and washed with acetic acid (1%). After drying at room temperature, Tris-base (10 mM) was added to solubilize protein bound stain. Absorbance was read in a microplate reader (Mindray MR-96A) at 492 nm. All experiments were performed at least in duplicate.

CHO-K1 = assay: Sulforhodamine B cytotoxicity assay, CHO-K1; format: cell-based, chinese hamster; details: 48 h, mean ± SE, non-malignant cells
Procedure: as §1, §2

SW620 [2] = assay: Sulforhodamine B cytotoxicity assay, SW620; format: cell-based, human; details: 48 h; for IC50: mean ± SE
Procedure: as §1, §2

HaCaT = assay: Sulforhodamine B cytotoxicity assay, HaCaT; format: cell-based, human; details: 48 h, mean ± SE, non-malignant cells
Procedure: as §1, §2

SW620 cells [3] = assay: Mitochondrial membrane potential and plasma membrane integrity (DiOC6/PI), SW620; format: cell-based, human; details: 48 h, IC50 concentration
Procedure: (§3) The fluorescent dyes DiOC6 (3,3′-dihexyloxacarbocyanine iodide, Thermo Fisher Scientific, Waltham, MA, USA) and propidium iodide (PI) were used to evaluate possible changes in mitochondrial membrane potential induced by the hybrid molecules. Then, 2.5 × 10^5 cells/well were seeded in 6-well tissue culture plates and allowed to grow for 24 h. Then, these were treated with hybrids 4a and 4g (with the IC50 value for each compound). Cells were harvested by scrapping 48 h after treatment, stained with DiOC6 and propidium iodide (PI) at room temperature for 30 min in darkness. Flow cytometric analysis of 10,000 events was carried out to quantify cells with mitochondrial depolarization, excitation at 488 nm and detection of the emission with the green (530/15 nm) and the red (610/20 nm) filters.

SW620 [4] = assay: Antiproliferative activity (sulforhodamine B), SW620; format: cell-based, human; details: dose- and time-dependent, from day 2 above 12.5 µM, from day 4 at 6.25 µM
Procedure: as §2

SW620 cells [5] = assay: Cell cycle distribution (PI, flow cytometry), SW620; format: cell-based, human; details: 48 h, IC50 concentration, versus DMSO control
Procedure: (§4) Cell cycle analysis was evaluated by flow cytometry using propidium iodide (PI). This experiment was carried out as previously described by Nicoletti et al. (1991). Then, 48 h after treatment with the IC50 value of the hybrids 4a, 4g and DMSO (1%) as a vehicle control, cells were collected by scraping and centrifugation, resuspending the cell pellet in a versene buffer. Thereafter, cells were fixed with 1.8 mL cold ethanol (70%) at 4 °C overnight. Alcohol was removed by subsequent washing twice with versene buffer. The final pellet was resuspended in 300 µL of PBS with 0.25 mg/mL RNAse (Type I-A, Sigma-Aldrich, Germany) and 0.1 mg/mL PI and incubated for 30 min in the dark at room temperature. FACS Canto II flow cytometer (BD Biosciences, USA) was used to read the PI fluorescence of 10,000 events. The analysis of data was performed with the software FlowJo 7.6.2 (Ashland, OR, USA).

SW620 cells [6] = assay: Cell death induction (Annexin V/FITC and PI), SW620; details: 48 h
Procedure: (§6) SW480 and SW620 cells were treated for 48 h and further collected by scraping. After centrifugation, the cell pellet was resuspended in Annexin V/FITC–PI and incubated in darkness for 20 min. Data were obtained through flow cytometry and analyzed with FlowJo 7.6.2 (Ashland, OR, USA). […] Cells with positive staining for PI were considered dead cells, late apoptotic cells, necroptotic cells or secondary necrotic cells. All assays were repeated twice [56].

SW620 cells [7] = system: SW620 cells
Procedure: as §6

SW480 cells [8] = assay: Cell death induction (Annexin V/FITC and PI), SW480; format: cell-based, human; details: 48 h
Excerpt: All assays were repeated twice.

[9] = system: tumor suppressor protein p53; assay: Apoptotic biomarker ELISA, p53 in SW620 cells; format: cell-based, human; details: 48 h, IC50 concentration, versus DMSO control
Excerpt: (§5) Afterwards, cells were scraped and lysed with Cell Lysis Buffer (1X, Ref. #9803). The supernatant was used for the determination of apoptotic biomarkers after the treatment with the hybrid molecules. Enzyme-linked immunosorbent assay (ELISA) kits were provided by Elabscience Biotechnology Co., (Wuhan, Hubei, China) (caspase-8) and Cell-Signaling Technology (Danvers, MA, USA) (caspase-3 and p53), following the manufacturer’s instructions.

SW480 cells [10] = assay: Cell cycle distribution (PI, flow cytometry), SW480; format: cell-based, human; details: 48 h, IC50 concentration
Procedure: as §4

caspase-3 = assay: Apoptotic biomarker ELISA, caspase-3 in SW620 cells; format: cell-based, human; details: 48 h, IC50 concentration, versus DMSO control
Excerpt: as §5

SW480 [11] = assay: Antiproliferative activity (sulforhodamine B), SW480; format: cell-based, human; details: dose- and time-dependent, from day 2 above 12.5 µM, from day 4 at 6.25 µM
Procedure: as §2

SW480 cells [12] = assay: Mitochondrial membrane potential and plasma membrane integrity (DiOC6/PI), SW480; format: cell-based, human; details: 48 h, IC50 concentration
Procedure: as §3

caspase 8 = assay: Apoptotic biomarker ELISA, caspase 8 in SW620 cells; format: cell-based, human; details: 48 h, IC50 concentration, versus DMSO control
Excerpt: as §5

[13] = system: human gastric cancer cell line (SGC-7901); parameters: method as in doi:10.1039/C6MD00268D; details: cited from earlier work
normal VERO cells = details: cited from earlier work
FL = details: cited from earlier work
Hep-G2 = details: cited from earlier work
RD = details: cited from earlier work
LU-1 = details: cited from earlier work

## 5-fluoro-1-((1-(3-((5-hydroxy-3-(4-hydroxyphenyl)-4-oxo-4H-chromen-7-yl)oxy)butyl)-1H-1,2,3-triazol-4-yl)methyl)pyrimidine-2,4(1H,3H)-dione [4c]
SW480 [1]
  IC50: > 100 µM
CHO-K1
  IC50: > 100 µM
SW620 [2]
  IC50: > 100 µM
HaCaT
  IC50: > 100 µM

## 5-fluoro-1-((1-(3-((5-hydroxy-3-(4-hydroxyphenyl)-4-oxo-4H-chromen-7-yl)oxy)dodecyl)-1H-1,2,3-triazol-4-yl)methyl)pyrimidine-2,4(1H,3H)-dione
SW480 [1]
  IC50: > 100 µM
CHO-K1
  IC50: > 100 µM
SW620 [2]
  Selectivity Index (SI) CHO-K1/620: >1.20
  Selectivity Index (SI) HaCaT/SW620: >1.20
  IC50: 83.6 ± 8.05 µM
HaCaT
  IC50: > 100 µM

## 5-fluoro-1-((1-(3-((5-hydroxy-3-(4-hydroxyphenyl)-4-oxo-4H-chromen-7-yl)oxy)hexyl)-1H-1,2,3-triazol-4-yl)methyl)pyrimidine-2,4(1H,3H)-dione [4e]
SW480 [1]
  IC50: > 100 µM
CHO-K1
  IC50: > 100 µM
SW620 [2]
  IC50: > 100 µM
HaCaT
  IC50: > 100 µM

## 5-fluoro-1-((1-(3-((5-hydroxy-3-(4-hydroxyphenyl)-4-oxo-4H-chromen-7-yl)oxy)nonyl)-1H-1,2,3-triazol-4-yl)methyl)pyrimidine-2,4(1H,3H)-dione [4g]
SW620 cells [3]
  Change in mitochondrial membrane potential: do not induce significant changes in mitochondrial membrane potential
SW620 [4]
  Antiproliferative activity (cell viability): significant decrease in the percentages of cell viability
SW620 cells [5]
  Effect on cell cycle distribution: important decrease in the population of cells in S-phase with a slight increase in G0/G1
SW480 [1]
  IC50: > 100 µM
SW620 cells [6]
  Plasma membrane integrity / cell death: caused a loss in membrane integrity
SW620 cells [7]
  Q3 (viable cells per legend): 0,00%
CHO-K1
  IC50: > 100 µM
SW620 [2]
  Selectivity Index (SI) CHO-K1/620: >2.71
  Selectivity Index (SI) HaCaT/SW620: >2.71
  IC50: 36.8 ± 0.71 µM
HaCaT
  IC50: > 100 µM

## 5-fluoro-1-((1-(3-((5-hydroxy-3-(4-hydroxyphenyl)-4-oxo-4H-chromen-7-yl)oxy)octyl)-1H-1,2,3-triazol-4-yl)methyl)pyrimidine-2,4(1H,3H)-dione [4f]
SW480 [1]
  Selectivity Index (SI) CHO-K1/SW480: >1.02
  Selectivity Index (SI) HaCaT/SW480: 0.51
  IC50: 97.5 ± 5.04 µM
CHO-K1
  IC50: > 100 µM
SW620 [2]
  Selectivity Index (SI) CHO-K1/620: >2.11
  Selectivity Index (SI) HaCaT/SW620: 1.05
  IC50: 47.4 ± 2.19 µM
HaCaT
  IC50: 50 ± 7.17 µM

## 5-fluoro-1-((1-(3-((5-hydroxy-3-(4-hydroxyphenyl)-4-oxo-4H-chromen-7-yl)oxy)pentyl)-1H-1,2,3-triazol-4-yl)methyl)pyrimidine-2,4(1H,3H)-dione [4d]
SW480 [1]
  IC50: > 100 µM
CHO-K1
  IC50: > 100 µM
SW620 [2]
  IC50: > 100 µM
HaCaT
  IC50: > 100 µM

## O=c1[nH]c(=O)n(Cc2cn(CCOc3cc(O)c4c(=O)c(-c5ccc(O)cc5)coc4c3)nn2)cc1F [4a, 5-fluoro-1-((1-(3-((5-hydroxy-3-(4-hydroxyphenyl)-4-oxo-4H-chromen-7-yl)oxy)ethyl)-1H-1,2,3-triazol-4-yl)methyl)pyrimidine-2,4(1H,3H)-dione]
SW620 cells [3]
  Change in mitochondrial membrane potential: do not induce significant changes in mitochondrial membrane potential
SW480 cells [8]
  Plasma membrane integrity / cell death: caused a loss in membrane integrity
SW620 [4]
  Antiproliferative activity (cell viability): significant decrease in the percentages of cell viability
[9]
  Protein levels of tumor suppressor protein Tp53: important changes in the levels of the tumor suppressor protein Tp53
SW620 cells [5]
  Effect on cell cycle distribution: important decrease in the population of cells in S-phase with a slight increase in G0/G1
SW480 [1]
  Selectivity Index (SI) CHO-K1/SW480: 1.13
  Selectivity Index (SI) HaCaT/SW480: 1.03
SW480 [1]; Homo sapiens, SW480
  IC50: 62.7 ± 7.26 µM
SW480 cells [10]; representative histogram
  Cell cycle distribution G0/G1: 46.4%
  Cell cycle distribution G2/M: 15.4%
  Cell cycle distribution S-phase: 36.4%
  Cell cycle distribution Sub G0/G1: 1.8%
SW480 cells [10]; versus DMSO control
  Effect on cell cycle distribution: important decrease in the population of G0/G1 after treatment with hybrid 4a, with a consequent increase in S-phase and G2/M
SW620 cells [6]
  Plasma membrane integrity / cell death: caused a loss in membrane integrity
caspase-3
  Protein levels of caspase-3: significant increase in the active form of caspase-3
SW480 [11]
  Antiproliferative activity (cell viability): significant decrease in the percentages of cell viability
CHO-K1; Cricetulus griseus, CHO-K1
  IC50: 71.1 ± 10.5 µM
SW620 [2]
  Selectivity Index (SI) CHO-K1/620: 1.41
  Selectivity Index (SI) HaCaT/SW620: 1.28
SW620 [2]; Homo sapiens, SW-620
  IC50: 50.6 ± 1.33 µM
SW480 cells [12]
  Change in mitochondrial membrane potential: do not induce significant changes in mitochondrial membrane potential
Caspase 8
  Protein levels of caspase 8: significant increase in the levels of caspase 8
HaCaT; Homo sapiens, HaCaT
  IC50: 64.6 ± 1.07 µM

## O=c1[nH]c(=O)n(Cc2cn(CCCOc3cc(O)c4c(=O)c(-c5ccc(O)cc5)coc4c3)nn2)cc1F [4b, 5-fluoro-1-((1-(3-((5-hydroxy-3-(4-hydroxyphenyl)-4-oxo-4H-chromen-7-yl)oxy)propyl)-1H-1,2,3-triazol-4-yl)methyl)pyrimidine-2,4(1H,3H)-dione]
SW480 [1]; Homo sapiens, SW480
  IC50: > 100 µM
other
  melting point: 175 to 178 °C
CHO-K1; Cricetulus griseus, CHO-K1
  IC50: > 100 µM
SW620 [2]; Homo sapiens, SW-620
  IC50: > 100 µM
HaCaT; Homo sapiens, HaCaT
  IC50: > 100 µM

## O=c1[nH]cc(F)c(=O)[nH]1 [5-FU, 5-fluorouracil]
SW480 [1]
  Selectivity Index (SI) CHO-K1/SW480: 0.99
  Selectivity Index (SI) HaCaT/SW480: 0.68
[13]; at 50 µM
  selectivity index SGC-7901 versus GES-1: 0.88
[13]; at the concentration of 10 µM
  selectivity index SGC-7901 versus GES-1: 0.74
Normal VERO cells
  IC50: 3.33 µM

## CC(C)c1ccc(/C=C/C(=O)c2cc(Cn3cc(F)c(=O)[nH]c3=O)ccc2O)cc1 [B]
FL
  IC50: 8.17 µM
Hep-G2
  IC50: 4.68 µM
RD
  IC50: 10.8 µM
LU-1
  IC50: 11.9 µM
Normal VERO cells
  IC50: 15 µM

## O=C(Cn1cc(F)c(=O)[nH]c1=O)OCC[n+]1ccc(/C=C/c2c[nH]c3ccccc23)cc1 [C1]
[13]; at the concentration of 10 µM
  selectivity index SGC-7901 versus GES-1: 1.16

## O=C(Cn1cc(F)c(=O)[nH]c1=O)NCC[n+]1ccc(/C=C/c2c[nH]c3ccccc23)cc1 [C2]
[13]; at 50 µM
  selectivity index SGC-7901 versus GES-1: 1.20
[13]; at the concentration of 10 µM
  selectivity index SGC-7901 versus GES-1: 1.08

## O=c1c(-c2ccc(O)cc2)coc2cc(O)cc(O)c12 [Genistein]
SW480 [1]
  Selectivity Index (SI) CHO-K1/SW480: 1.01
  Selectivity Index (SI) HaCaT/SW480: 0.95
SW480 [1]; Homo sapiens, SW480
  IC50: 48.1 ± 3.03 µM
CHO-K1; Cricetulus griseus, CHO-K1
  IC50: 48.4 ± 4.13 µM
SW620 [2]
  Selectivity Index (SI) CHO-K1/620: 0.64
  Selectivity Index (SI) HaCaT/SW620: 0.63
SW620 [2]; Homo sapiens, SW-620
  IC50: 75.8 ± 5.83 µM
HaCaT; Homo sapiens, HaCaT
  IC50: 45.9 ± 1.97 µM
